We go through 31 molecules from patent US20190031599A1, “INDANE DERIVATIVES AS MGLUR7 MODULATORS” (Takeda Pharmaceutical Company Limited, priority 2016, published 2019).

In this experiment the target is T1, human mGluR7 (Homo sapiens, UniProt Q14831).
T1 construct: expressed in transfected cells
Put plainly: mGluR7 assay: CRE-directed luciferase reporter gene assay, reduction of forskolin stimulated cAMP production. As to conditions: stable CHO cell line expressing the CRE-luc reporter and human mGluR7 genes; decrease of forskolin stimulated luminescence; 10-point concentration-response, duplicate wells. Format: cell-based. As to the method: The ability of the test compounds to activate mGluR7 was determined by their ability to reduce forskolin stimulated cAMP production. Compounds were assessed in a CRE-directed luciferase reporter gene assay, using a stable CHO cell line expressing the CRE-luc reporter and human mGluR7 genes. In this cell line, production of cAMP stimulated the transcription of the luciferase gene and luciferase activity was then measured in a luminescent enzyme assay (Steady Glo assay; Promega E2550). Activation of mGluR7 decreased the forskolin stimulated luminescence signal.
The day prior to the assay, compounds were serially diluted in DMSO (100× final assay concentration (FAC)), in 384-well plates which were then stored in the dark at room temperature (RT) until use. Cells were seeded at 12.5 k/well in white, clear bottom 384-well plates (Corning 3707) and left for one hour at RT followed by an overnight incubation (37° C.). The following day, the DMSO compound plate was diluted 1:20 (5× FAC) in Opti-MEM I (Life Technologies 11058021). The growth media was removed from the cell plate and replaced with 15 μl Opti-MEM I, followed by a 5 μl addition from the 5× compound plate and a fifteen minute incubation (37° C.). Forskolin (Sigma F3917) was then added to the wells (5 μl of 2.5 μM) and the plate was incubated for five hours (37° C.). During this incubation, the Steady Glo Substrate reagent was warmed to 37° C. Aliquots (11 ml; stored at −20° C.) of this reagent were prepared by dissolving the contents of 1 vial of lyophilised substrate in 100 ml Steady-Glo buffer. A 25 μl addition of the substrate was made to all wells and the plate was incubated for thirty minutes at RT, on a plate shaker (300 rpm; in the dark). Luminescence was then measured using the EnVision Multilabel Reader (Perkin Elmer).
Compound activity was examined using a 10-point, half log concentration-response range and each concentration was tested in duplicate wells. Luminescence values were normalised to ‘maximum’ (forskolin alone) and ‘minimum’ (forskolin in the presence of tool mGluR7 agonist) controls.
(In general: In a reporter assay the amount or activity of a reporter protein is the signal.)

Each structure is given as a SMILES string.

T1 sequence (Q14831 35-915): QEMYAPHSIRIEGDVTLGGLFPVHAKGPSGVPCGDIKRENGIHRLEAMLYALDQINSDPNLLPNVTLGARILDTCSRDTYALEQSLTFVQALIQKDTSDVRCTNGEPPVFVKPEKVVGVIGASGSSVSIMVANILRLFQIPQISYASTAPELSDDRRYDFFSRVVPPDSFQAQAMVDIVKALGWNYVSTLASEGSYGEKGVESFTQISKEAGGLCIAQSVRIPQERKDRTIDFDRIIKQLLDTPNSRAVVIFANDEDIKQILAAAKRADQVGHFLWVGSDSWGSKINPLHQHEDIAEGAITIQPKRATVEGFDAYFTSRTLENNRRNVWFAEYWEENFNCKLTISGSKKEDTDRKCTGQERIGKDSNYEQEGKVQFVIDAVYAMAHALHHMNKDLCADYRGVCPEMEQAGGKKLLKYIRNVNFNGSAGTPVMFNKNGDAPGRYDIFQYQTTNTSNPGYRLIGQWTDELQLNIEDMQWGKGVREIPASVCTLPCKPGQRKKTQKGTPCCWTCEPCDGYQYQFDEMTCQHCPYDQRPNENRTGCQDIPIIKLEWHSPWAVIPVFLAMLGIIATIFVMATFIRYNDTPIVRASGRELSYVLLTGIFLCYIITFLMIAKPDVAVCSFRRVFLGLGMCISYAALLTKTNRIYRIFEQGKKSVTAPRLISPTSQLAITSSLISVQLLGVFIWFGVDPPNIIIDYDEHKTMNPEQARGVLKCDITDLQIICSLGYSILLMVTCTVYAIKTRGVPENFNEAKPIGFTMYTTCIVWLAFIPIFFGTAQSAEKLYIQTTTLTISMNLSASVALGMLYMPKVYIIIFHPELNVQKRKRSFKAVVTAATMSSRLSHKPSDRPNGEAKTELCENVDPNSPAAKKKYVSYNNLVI

`Cc1nccn1C(C(=O)N[C@H]1Cc2ccccc2[C@@H]1NC(=O)OC(C)(C)C)c1ccc(F)cc1F` (mixture of isomers) [Example 82, tert-butyl N-[(1S,2S)-2-[2-(2,4-difluorophenyl)-2-(2-methyl-1H-imidazol-1-yl)acetamido]-2,3-dihydro-1H-inden-1-yl]carbamate]: the response was half-maximal at 0.772 µM (EC50).

Consider `COC1c2ccccc2CC1NC(=O)[C@@H](NS(C)(=O)=O)c1ccc(F)cc1` (stereo in doubt) [Example 72, (2S)-2-(4-fluorophenyl)-2-methanesulphonamido-N-(trans)-(1-methoxy-2,3-dihydro-1H-inden-2-yl)acetamide], for which the midpoint of the response, the EC50, lay at 0.011 µM.

For `N[C@H]1c2ccccc2C[C@@H]1NC(=O)C(c1ccc(F)cc1)C1CC1` (single isomer, unassigned) [Example 96], the EC50 (commonly the concentration needed to bring the measured effect to its halfway point) was determined as 0.054 µM. This EC50 lies about 4.9-fold higher than the previous one.

For `CC[C@H](C(=O)NC1Cc2ccccc2C1OC)c1ccc(F)cc1` (mixture of isomers) [Example 44, (2S)-2-(4-fluorophenyl)-N-((trans)-1-methoxy-2,3-dihydro-1H-inden-2-yl)butanamide], the EC50 is 0.009 µM.

With `COC1CN(C(C(=O)N[C@H]2Cc3ccccc3[C@@H]2NC(=O)OC(C)(C)C)c2ccc(F)cc2F)C1` (stereo partly drawn) [Example 104, tert-butyl N-[(1S,2S)-2-[2-(2,4-difluorophenyl)-2-(3-methoxyazetidin-1-yl)acetamido]-2,3-dihydro-1H-inden-1-yl]carbamate], the EC50 worked out at 0.012 µM.

The molecule `CN[C@@H]1c2ccccc2C[C@H]1NC(=O)[C@H](C)c1ccc(F)cc1` [Example 155, (2R)-2-(4-fluorophenyl)-N-[(1R,2R)-1-(methylamino)-2,3-dihydro-1H-inden-2-yl]propanamide] gave an EC50 of 2.22 µM.

With `COC1c2ccccc2CC1NC(=O)[C@@H](NCC1CC1)c1ccc(F)cc1` (single isomer, unassigned) [Example 56], the EC50 was 0.001 µM.

The molecule `CC[C@H](C(=O)N[C@@H]1Cc2ccccc2[C@H]1N)c1ccc(F)cc1` [Example 53, (2S)—N-[(1R,2R)-1-amino-2,3-dihydro-1H-inden-2-yl]-2-(4-fluorophenyl)butanamide] showed an EC50 of 0.126 µM. Against the preceding molecule, the EC50 is about 130-fold higher.

Molecule `N[C@H]1c2ccccc2C[C@@H]1NC(=O)C(c1ccc(F)cc1)N1CC(F)C1` (single isomer, unassigned) [Example 115] showed an EC50 of 0.181 µM. This EC50 and that of the molecule before are within 1.5-fold of each other.

The molecule `CN[C@@H]1c2ccccc2C[C@H]1NC(=O)[C@@H](C)c1ccc(F)cc1` [Example 95, (2S)-2-(4-fluorophenyl)-N-[(1R,2R)-1-(methylamino)-2,3-dihydro-1H-inden-2-yl]propanamide] registered an EC50 of 0.009 µM.

Regarding `CO[C@H](C(=O)NC1Cc2ccccc2C1S(C)(=O)=O)c1ccccc1` (stereo in doubt) [Example 149, (2S)—N-(trans)-(1-methanesulfonyl-2,3-dihydro-1H-inden-2-yl)-2-methoxy-2-phenylacetamide], the EC50 came to 0.225 µM.

Molecule `CCO[C@@H]1c2ccccc2C[C@H]1NC(=O)[C@@H](NCc1csc(C)n1)c1ccc(F)cc1` (mixture of isomers) [Example 60, (2S)—N-(trans)-(1-ethoxy-2,3-dihydro-1H-inden-2-yl)-2-(4-fluorophenyl)-2-{[(2-methyl-1,3-thiazol-4-yl)methyl]amino}acetamide] had an EC50 of 0.003 µM.

The molecule `COC1c2ccccc2CC1NC(=O)C(c1ccc(F)cc1)n1ncccc1=O` (single isomer, unassigned) [Example 129, 2-(4-fluorophenyl)-N-(trans)-(1-methoxy-2,3-dihydro-1H-inden-2-yl)-2-(6-oxo-1,6-dihydropyridazin-1-yl)acetamide] had an EC50 of 3.9 µM.

Molecule `N[C@H]1c2ccccc2C[C@@H]1NC(=O)C(c1ccc(F)cc1F)N1CC(F)C1` (stereo partly drawn) [Example 105, N-[(1S,2S)-1-amino-2,3-dihydro-1H-inden-2-yl]-2-(2,4-difluorophenyl)-2-(3-fluoroazetidin-1-yl)acetamide] gave an EC50 of 0.146 µM.

The molecule `COC1c2ccccc2CC1NC(=O)C(c1ccc(F)cc1)N1CC(F)C1` (single isomer, unassigned) [Example 143, 2-(4-fluorophenyl)-2-(3-fluoroazetidin-1-yl)-N-(trans)-(1-methoxy-2,3-dihydro-1H-inden-2-yl)acetamide] returned an EC50 of 1.25 µM.

As to `C[C@H](C(=O)N[C@H]1Cc2ccccc2[C@@H]1NS(C)(=O)=O)c1ccc(F)cc1F` [Example 89, (2S)-2-(2,4-difluorophenyl)-N-[(1S,2S)-1-methanesulfonamido-2,3-dihydro-1H-inden-2-yl]propanamide], the response was half-maximal at 1.61 µM (EC50).

As to `CS(=O)(=O)C1c2ccccc2CC1NC(=O)C(OCC1CC1)c1ccccc1` (single isomer, unassigned) [Example 146, 2-(cyclopropylmethoxy)-N-(trans)-(1-methanesulfonyl-2,3-dihydro-1H-inden-2-yl)-2-phenylacetamide], the concentration for a half-maximal effect (EC50) was 0.004 µM.

For the molecule `N[C@H]1c2ccccc2C[C@@H]1NC(=O)C1(c2ccccc2)CNC(=O)C1` (stereo partly drawn) [Example 122, N-[(1S,2S)-1-amino-2,3-dihydro-1H-inden-2-yl]-5-oxo-3-phenylpyrrolidine-3-carboxamide], the EC50 came out at 0.485 µM.

`N[C@H]1c2ccccc2C[C@@H]1NC(=O)C1(c2ccccc2)CCNC1` (stereo partly drawn) [Example 120, N-[(1S,2S)-1-amino-2,3-dihydro-1H-inden-2-yl]-3-phenylpyrrolidine-3-carboxamide] displayed an EC50 of 3.32 µM.

As for `CC(C)(C)OC(=O)N[C@H]1c2ccccc2C[C@@H]1NC(=O)C1(c2ccc(F)cc2)CCOCC1` [Example 94, tert-butyl N-[(1S,2S)-2-[4-(4-fluorophenyl)oxane-4-amido]-2,3-dihydro-1H-inden-1-yl]carbamate], the concentration for a half-maximal effect (EC50) was found to be 0.046 µM.

As to `CC(C)(C)OC(=O)N[C@H]1c2ccccc2C[C@@H]1NC(=O)C(C)(C)c1ccc(F)cc1` [Example 87, tert-butyl N-[(1S,2S)-2-[2-(4-fluorophenyl)-2-methylpropanamido]-2,3-dihydro-1H-inden-1-yl]carbamate], the response was half-maximal at 0.582 µM (EC50).

Turning to `CS(=O)(=O)[C@@H]1c2ccccc2C[C@H]1NC(=O)C(OCC1CC1)c1ccc(F)cc1` (single isomer, unassigned) [Example 162, 2-(cyclopropylmethoxy)-2-(4-fluorophenyl)-N-(trans)-(1-methanesulfonyl-2,3-dihydro-1H-inden-2-yl)acetamide], the 50% effective concentration (EC50) turned out to be 0.002 µM.

On to `N[C@H]1c2ccccc2C[C@@H]1NC(=O)C(c1ccc(F)cc1)C1CC1` (single isomer, unassigned) [Example 97], for which the EC50 was 0.807 µM.

The molecule `COC1c2ccccc2CC1NC(=O)C(c1ccc(F)cc1F)n1ncccc1=O` (single isomer, unassigned) [Example 127, 2-(2,4-difluorophenyl)-N-(trans)-(1-methoxy-2,3-dihydro-1H-inden-2-yl)-2-(6-oxo-1,6-dihydropyridazin-1-yl)acetamide] came in with an EC50 of 0.082 µM. Compared with the last molecule, the EC50 is about 9.8-fold lower.

For the molecule `COC1c2ccccc2CC1NC(=O)C(c1ccc(F)cc1F)N1CC(F)C1` (single isomer, unassigned) [Example 139, 2-(2,4-difluorophenyl)-2-(3-fluoroazetidin-1-yl)-N-(trans)-(1-methoxy-2,3-dihydro-1H-inden-2-yl)acetamide], the 50% effective concentration (EC50) turned out to be 0.061 µM.

In turn, `N[C@H]1c2ccccc2C[C@@H]1NC(=O)C(c1ccc(F)cc1F)n1ccccc1=O` (single isomer, unassigned) [Example 50] showed an EC50 of 3.92 µM.

For the molecule `CC(F)(C(=O)N[C@H]1Cc2ccccc2[C@@H]1N)c1ccc(F)cc1` (stereo partly drawn) [Example 75, N-[(1S,2S)-1-amino-2,3-dihydro-1H-inden-2-yl]-2-fluoro-2-(4-fluorophenyl)propanamide], the EC50 was determined as 0.32 µM.

Regarding `CC(C)(C)OC(=O)N[C@H]1c2ccccc2C[C@@H]1NC(=O)C(c1ccc(F)cc1F)n1cccn1` (mixture of isomers) [Example 81, tert-butyl N-[(1S,2S)-2-[2-(2,4-difluorophenyl)-2-(1H-pyrazol-1-yl)acetamido]-2,3-dihydro-1H-inden-1-yl]carbamate], a half-maximal response (EC50) required 0.083 µM.

Turning to `C[C@H](C(=O)N[C@H]1Cc2ccccc2[C@@H]1S(C)(=O)=O)c1ccc(F)cc1` [Example 132, (2S)-2-(4-fluorophenyl)-N-[(1S,2S)-1-methanesulfonyl-2,3-dihydro-1H-inden-2-yl]propanamide], the 50% effective concentration (EC50) turned out to be 0.005 µM.

For the molecule `CC(C)(C)OC(=O)N[C@H]1c2ccccc2C[C@@H]1NC(=O)C1(c2ccccc2)COC1` [Example 88, tert-butyl N-[(1S,2S)-2-(3-phenyloxetane-3-amido)-2,3-dihydro-1H-inden-1-yl]carbamate], the EC50 is 0.053 µM. This EC50 is about 11-fold higher than that of the molecule before.

`C[C@H](C(=O)N[C@H]1Cc2ccccc2[C@@H]1N(Cc1ncco1)Cc1ncco1)c1ccc(F)cc1F` [Example 114, (2S)—N-[(1S,2S)-1-{bis[(1,3-oxazol-2-yl)methyl]amino}-2,3-dihydro-1H-inden-2-yl]-2-(2,4-difluorophenyl)propanamide] had an EC50 of 0.101 µM. Against the preceding molecule, the EC50 is about 1.9-fold higher.
